From US20030144263A1, “Oxazolidinone derivatives, process for their preparation and pharmaceutical compositions containing them” (Syngenta Limited, priority 1998, published 2003)
Values after ≈ are worked out from the molar mass of the structure shown. Like-named read-outs stand apart in the source and are kept apart here. Each block holds one compound with its values, some of them ahead of it.

Key:
[1] = system: Staphylococcus aureus Novb. Res (Novobiocin resistant); test: MIC by agar-dilution, Staphylococcus aureus Novb. Res; type: cell-based; details: inoculum 10^4 CFU/spot, 37° C., 24 hours
Method: (§1) The following results were obtained on a standard in-vitro test system. The activity is described in terms of the minimum inhibitory concentration (MIC) determined by the agar-dilution technique with an inoculum size of 10^4 CFU/spot. Typically, compounds are active in the range 0.01 to 256 μg/ml.
(§2) Staphylococci were tested on agar, using an inoculum of 10^4 CFU/spot and an incubation temperature of 37° C. for 24 hours—standard test conditions for the expression of methicillin resistance.

[2] = system: Staphylococcus aureus MRQR (methicillin resistant quinolone resistant); test: MIC by agar-dilution, Staphylococcus aureus MRQR; type: cell-based; details: inoculum 10^4 CFU/spot, 37° C., 24 hours
Method: as §1, §2

[3] = system: Staphylococcus aureus Oxford; test: MIC by agar-dilution, Staphylococcus aureus Oxford; type: cell-based; details: inoculum 10^4 CFU/spot, 37° C., 24 hours
Method: as §1, §2

[4] = system: Coagulase Negative Staphylococci MR (methicillin resistant); test: MIC by agar-dilution, Coagulase Negative Staphylococci MR; type: cell-based; details: inoculum 10^4 CFU/spot, 37° C., 24 hours
Method: as §1, §2

[5] = system: Coagulase Negative Staphylococci MS (methicillin sensitive); test: MIC by agar-dilution, Coagulase Negative Staphylococci MS; type: cell-based; details: inoculum 10^4 CFU/spot, 37° C., 24 hours
Method: as §1, §2

[6] = system: Enterococcus faecalis; test: MIC by agar-dilution, Enterococcus faecalis; type: cell-based; details: agar with 5% defibrinated horse blood, 10^4 CFU/spot, 37° C., 5% carbon dioxide, 48 hours
Method: as §1, with “μg/ml. Streptococci and enterococci were tested on agar supplemented with 5% defibrinated horse blood, an inoculum of 10^4 CFU/spot and an incubation temperature of 37° C. in an atmosphere of 5% carbon dioxide for 48 hours—blood is required for the growth of some of the test organisms.” for “μg/ml.”

[7] = system: Bacillus subtilis; test: MIC by agar-dilution, Bacillus subtilis; type: cell-based; details: inoculum 10^4 CFU/spot
Method: as §1

[8] = system: Streptococcus pyogenes C203; test: MIC by agar-dilution, Streptococcus pyogenes C203; type: cell-based; details: agar with 5% defibrinated horse blood, 10^4 CFU/spot, 37° C., 5% carbon dioxide, 48 hours
Method: as §1, with “μg/ml. Streptococci and enterococci were tested on agar supplemented with 5% defibrinated horse blood, an inoculum of 10^4 CFU/spot and an incubation temperature of 37° C. in an atmosphere of 5% carbon dioxide for 48 hours—blood is required for the growth of some of the test organisms.” for “μg/ml.”

Structure (SMILES): O=C(C(O)CO)N1CC=C(c2c(F)cc(N3C[C@H](COc4ccon4)OC3=O)cc2F)CC1 (mixture of isomers) [Example 4, 5(R)-Isoxazol-3-yloxymethyl-3-(4-(1-(2(R,S),3-dihydroxypropanoyl)-1,2,5,6-tetrahydropyrid-4-yl)-3,5-difluorophenyl)-oxazolidin-2-one]
MIC ([1]; read-out: MIC): 0.5 µg/mL
MIC ([2]; read-out: MIC): 0.5 µg/mL
MIC ([3]; read-out: MIC): 0.25 µg/mL
MIC ([4]; read-out: MIC): 0.5 µg/mL
MIC ([5]; read-out: MIC): 0.13 µg/mL
MIC ([6]; read-out: MIC): 1 µg/mL
MIC ([7]; read-out: MIC): 0.25 µg/mL
MIC ([8]; read-out: MIC): 0.5 µg/mL

Structure (SMILES): O=C([C@@H](O)CO)N1CC=C(c2ccc(N3C[C@H](COc4ccon4)OC3=O)cc2F)CC1 [Example 12, 5(R)-Isoxazol-3-yloxymethyl-3-(4-(1-(2(S),3-dihydroxypropanoyl)-1,2,5,6-tetrahydropyrid-4-yl)-3-fluorophenyl)oxazolidin-2-one]
MIC ([1]; read-out: MIC): 0.5 µg/mL (≈ 1.12 µM)
MIC ([2]; read-out: MIC): 0.5 µg/mL (≈ 1.12 µM)
MIC ([3]; read-out: MIC): 0.25 µg/mL (≈ 0.559 µM)
MIC ([4]; read-out: MIC): 0.5 µg/mL (≈ 1.12 µM)
MIC ([5]; read-out: MIC): 0.13 µg/mL (≈ 0.291 µM)
MIC ([6]; read-out: MIC): 1 µg/mL (≈ 2.24 µM)
MIC ([7]; read-out: MIC): 0.25 µg/mL (≈ 0.559 µM)
MIC ([8]; read-out: MIC): 0.5 µg/mL (≈ 1.12 µM)

Structure (SMILES): O=C([C@H](O)CO)N1CC=C(c2ccc(N3C[C@H](COc4ccon4)OC3=O)cc2)CC1 [Example 40, 5(R)-Isoxazol-3-yloxymethyl-3-(4-(1-(2(R),3-dihydroxypropanoyl)-1,2,5,6-tetrahydropyrid-4-yl)phenyl)oxazolidin-2-one]
melting point: 138 to 144 °C

Structure (SMILES): O=C1O[C@@H](COc2cnsn2)CN1c1ccc(C2=CCOCC2)c(F)c1 [Example 10, 5(R)-(1,2,5-Thiadiazol-3-yloxymethyl)-3-(3-fluoro-4-(3,6-dihydro-(2H)-pyran-4-yl)phenyl)oxazolidin-2-one]
melting point: 46 to 48 °C

Structure (SMILES): O=C([C@@H](O)CO)N1CC=C(c2c(F)cc(N3C[C@H](COc4ccon4)OC3=O)cc2F)CC1 [Example 18, 5(R)-Isoxazol-3-yloxymethyl-3-(4-(1-(2(S),3-dihydroxypropanoyl)-1,2,5,6-tetrahydropyrid-4-yl)-3,5-difluorophenyl)oxazolidin-2-one]
MIC ([1]; read-out: MIC): 0.25 µg/mL (≈ 0.537 µM)
MIC ([2]; read-out: MIC): 0.5 µg/mL (≈ 1.07 µM)
MIC ([3]; read-out: MIC): 0.25 µg/mL (≈ 0.537 µM)
MIC ([4]; read-out: MIC): 0.5 µg/mL (≈ 1.07 µM)
MIC ([5]; read-out: MIC): 0.13 µg/mL (≈ 0.279 µM)
MIC ([6]; read-out: MIC): 0.5 µg/mL (≈ 1.07 µM)
MIC ([7]; read-out: MIC): 0.25 µg/mL (≈ 0.537 µM)
MIC ([8]; read-out: MIC): 0.25 µg/mL (≈ 0.537 µM)

The next lines start with the values.

melting point: 200 to 202 °C (dec.)
Structure (SMILES): O=C([C@@H](O)CO)N1CC=C(c2ccc(N3C[C@H](COc4ccon4)OC3=O)cc2)CC1 [Example 41, 5(R)-Isoxazol-3-yloxymethyl-3-(4-(1-(2(S),3-dihydroxypropanoyl)-1,2,5,6-tetrahydropyrid-4-yl)phenyl)oxazolidin-2-one]

MIC [1]: 0.25 µg/mL (≈ 0.575 µM)
MIC [2]: 0.25 µg/mL (≈ 0.575 µM)
MIC [3]: 0.13 µg/mL (≈ 0.299 µM)
MIC [4]: 0.25 µg/mL (≈ 0.575 µM)
MIC [5]: 0.13 µg/mL (≈ 0.299 µM)
MIC [6]: 0.25 µg/mL (≈ 0.575 µM)
MIC [7]: 0.13 µg/mL (≈ 0.299 µM)
MIC [8]: 0.25 µg/mL (≈ 0.575 µM)
Structure (SMILES): O=C(CO)N1CC=C(c2ccc(N3C[C@H](COc4cnsn4)OC3=O)cc2F)CC1 [Example 151, 5(R)-1,2,5-Thiadiazol-3-yloxymethyl-3-(4-(1-hydroxyacetyl-1,2,5,6-tetrahydropyrid-4-yl)-3-fluorophenyl)oxazolidin-2-one]

melting point: 180 °C
Structure (SMILES): CS(=O)(=O)c1ccc(N2C[C@H](COc3ccon3)OC2=O)cc1 [Example 163, 3-(4-Methylsulfonylphenyl)-5(R)-(isoxazol-3-yloxymethyl)oxazolidin-2-one]

melting point: 97 to 98 °C
Structure (SMILES): O=C1O[C@@H](COc2cnsn2)CN1c1ccc(N2C[C@@H]3C[C@H]2CN3Cc2ccccc2)c(F)c1 [Example 154, 5(R)-1 ,2,5-Thiadiazol-3-yloxymethyl-3-(4-((1 S)(4S)-2-benzyl-2,5-diazabicyclo{2.2.1}heptan-5-yl)-3-fluorophenyl)oxazolidin-2-one]

melting point: 146 to 148 °C
Structure (SMILES): O=C1O[C@@H](COc2cnsn2)CN1c1ccc(C2=CCOCC2)c(F)c1 [Example 142, 5(R)-1,2,5-Thiadiazol-3-yloxymethyl-3-(4-[3,6-dihydro-(2H)-pyran-4-yl]-3-fluorophenyl)oxazolidin-2-one]
